Values joined by “and” are separate entries in the source; they are usually repeats but may differ in a detail not shown here. Equal entries are not always repeated.
System: collagen-induced arthritis
Experiment: Collagen-induced arthritis (CIA) model: clinical scores and paw volume; for Animal paw volume percent change (%): reference of the scale not given here; for Average animal paw volume percent change (%): reference of the scale not given here
Type: in vivo, Lewis rats
Settings: for Animal paw volume percent change (%) / Animal paw volume / clinical score left forelimb / clinical score right forelimb / clinical score right hind limb / clinical score, score (all limbs) / clinical score left hind limb: individual animals; for Average detailed clinical score, left forelimb / Average detailed clinical score, left hind limb / Average detailed clinical score, right forelimb / Average detailed clinical score, right hind limb / Average detailed clinical score, score / Average overall clinical score / Overall Clinical Score / Animal paw volume: Day 21; for Overall Clinical Score: individual animals 1-8
[1] = Day 21, R paw, group 7 CIA + Compound A 10 mg/kg
[2] = group 5 CIA + Compound A 1 mg/kg, 2nd section of table, 1st day (between Day 12 and Day 18)
[3] = group 5 CIA + Compound A 1 mg/kg, 2nd section of table, 1st day (between Day 12 and Day 18), 1 mg/kg
[4] = group 5 CIA + Compound A 1 mg/kg, 2nd section of table, 2nd day (between Day 12 and Day 18)
[5] = group 5 CIA + Compound A 1 mg/kg, 2nd section of table, 2nd day (between Day 12 and Day 18), 1 mg/kg
[6] = group 5 CIA + Compound A 1 mg/kg, 2nd section of table, 3rd day (between Day 12 and Day 18)
[7] = group 5 CIA + Compound A 1 mg/kg, 2nd section of table, 3rd day (between Day 12 and Day 18), 1 mg/kg
[8] = group 5 CIA + Compound A 1 mg/kg, Day 18
[9] = group 5 CIA + Compound A 1 mg/kg, Day 18, 1 mg/kg
[10] = group 5 CIA + Compound A 1 mg/kg, Day 19
[11] = group 5 CIA + Compound A 1 mg/kg, Day 19, 1 mg/kg
[12] = group 5 CIA + Compound A 1 mg/kg, Day 20
[13] = group 5 CIA + Compound A 1 mg/kg, Day 20, 1 mg/kg
[14] = group 6 CIA + Compound A 3 mg/kg, 2nd section of table, 1st day (between Day 12 and Day 18)
[15] = group 6 CIA + Compound A 3 mg/kg, 2nd section of table, 2nd day (between Day 12 and Day 18)
[16] = group 6 CIA + Compound A 3 mg/kg, 2nd section of table, 2nd day (between Day 12 and Day 18), 3 mg/kg
[17] = group 6 CIA + Compound A 3 mg/kg, 2nd section of table, 3rd day (between Day 12 and Day 18)
[18] = group 6 CIA + Compound A 3 mg/kg, 2nd section of table, 3rd day (between Day 12 and Day 18), 3 mg/kg
[19] = group 6 CIA + Compound A 3 mg/kg, Day 18
[20] = group 6 CIA + Compound A 3 mg/kg, Day 18, 3 mg/kg
[21] = group 6 CIA + Compound A 3 mg/kg, Day 19
[22] = group 6 CIA + Compound A 3 mg/kg, Day 19, 3 mg/kg
[23] = group 6 CIA + Compound A 3 mg/kg, Day 20
[24] = group 6 CIA + Compound A 3 mg/kg, Day 20, 3 mg/kg
[25] = group 7 CIA + Compound A 10 mg/kg, 2nd section of table, 1st day (between Day 12 and Day 18), 10 mg/kg
[26] = group 7 CIA + Compound A 10 mg/kg, 2nd section of table, 2nd day (between Day 12 and Day 18)
[27] = group 7 CIA + Compound A 10 mg/kg, 2nd section of table, 2nd day (between Day 12 and Day 18), 10 mg/kg
[28] = group 7 CIA + Compound A 10 mg/kg, 2nd section of table, 3rd day (between Day 12 and Day 18)
[29] = group 7 CIA + Compound A 10 mg/kg, 2nd section of table, 3rd day (between Day 12 and Day 18), 10 mg/kg

In the case of Cn1cc(-c2ccccc2)c(-c2cn(C)c(=O)c3[nH]c(-c4cnn(C(F)(F)F)c4)cc23)cc1=O [Compound A, 6-methyl-4-(1-methyl-2-oxo-5-phenyl-1,2-dihydropyridin-4-yl)-2-(1-(trifluoromethyl)-1H-pyrazol-4-yl)-1,6-dihydro-7H-pyrrolo[2,3-c]pyridin-7-one], the “Average animal paw volume percent change (%)” value (Day 21, R paw, group 6 CIA + Compound A 3 mg/kg) is reported as 38.15%, the “Average animal paw volume” value [1] is reported as 1.81 mL and the “Average animal paw volume percent change (%)” value [1] is reported as 38.27%. For the same compound, the “Animal paw volume percent change (%)” value (Day 21, R paw, group 5 CIA + Compound A 1 mg/kg, 1 mg/kg) was 73.56% and 88.03% and 50.91% and 70.19% and 18.45% and 55.51% and 49.81%, the “Animal paw volume percent change (%)” value (Day 21, R paw, group 6 CIA + Compound A 3 mg/kg, 3 mg/kg) was 64.91% and 27.24% and 46.04% and 29.74% and 60.23% and the “Average detailed clinical score, left forelimb” value (CIA + Compound A 1 mg/kg) was 1.00. The “Average detailed clinical score, left hind limb” value (CIA + Compound A 1 mg/kg) was 4.00, the “Average detailed clinical score, right forelimb” value (CIA + Compound A 1 mg/kg) was 1.00 and the “Average detailed clinical score, right hind limb” value (CIA + Compound A 1 mg/kg) was 3.75. For the same compound, the “Average detailed clinical score, score” value (CIA + Compound A 1 mg/kg) was 9.75, the “Average overall clinical score” value (CIA + Compound A 1 mg/kg) was 5 and the “Overall Clinical Score” value (CIA + Compound A 1 mg/kg, 1 mg/kg) was 0 and 6 (5×) and 8 and 2. For the same compound, the “Average detailed clinical score, left forelimb” value (CIA + Compound A 3 mg/kg) was 0.00, the “Average detailed clinical score, left hind limb” value (CIA + Compound A 3 mg/kg) was 2.50 and the “Average detailed clinical score, right forelimb” value (CIA + Compound A 3 mg/kg) was 1.25. The “Average detailed clinical score, right hind limb” value (CIA + Compound A 3 mg/kg) was 2.75, the “Average detailed clinical score, score” value (CIA + Compound A 3 mg/kg) was 6.50 and the “Average overall clinical score” value (CIA + Compound A 3 mg/kg) was 4. The “Overall Clinical Score” value (CIA + Compound A 3 mg/kg, 3 mg/kg) was 5 (2×) and 3 (2×), the “Average detailed clinical score, left forelimb” value (CIA + Compound A 10 mg/kg) was 0.00 and the “Average detailed clinical score, left hind limb” value (CIA + Compound A 10 mg/kg) was 1.88. For the same compound, the “Average detailed clinical score, right forelimb” value (CIA + Compound A 10 mg/kg) was 0.13, the “Average detailed clinical score, right hind limb” value (CIA + Compound A 10 mg/kg) was 1.63 and the “Average detailed clinical score, score” value (CIA + Compound A 10 mg/kg) was 3.63. The “Average overall clinical score” value (CIA + Compound A 10 mg/kg) was 4, the Animal paw volume (L paw, Group 5 (CIA + Compound A 1 mg/kg), 1 mg/kg) was 2.05 mL and 2.45 mL and 2.08 mL (2×) and 2.27 mL and 1.64 mL and 2.15 mL and the Animal paw volume (L paw, Group 6 (CIA + Compound A 3 mg/kg), 3 mg/kg) was 1.92 mL and 2.19 mL and 1.64 mL and 1.52 mL and 1.80 mL. The Animal paw volume (R paw, Group 5 (CIA + Compound A 1 mg/kg), 1 mg/kg) was 2.27 mL and 2.44 mL and 2.08 mL and 2.26 mL and 1.61 mL and 2.05 mL and 1.99 mL, the Animal paw volume (R paw, Group 6 (CIA + Compound A 3 mg/kg), 3 mg/kg) was 2.19 mL and 1.64 mL and 1.94 mL and 1.75 mL and 2.08 mL and the “clinical score left forelimb” value [2] was 0. For the same compound, the “clinical score right forelimb” value [2] was 0, the “clinical score right hind limb” value [3] was 0 (6×) and 1 (2×) and the “clinical score, score (all limbs)” value [3] was 0 (6×) and 2 and 1. For the same compound, the “clinical score left forelimb” value [4] was 0, the “clinical score right forelimb” value [4] was 0 and the “clinical score left hind limb” value [5] was 0 (5×) and 2 and 1 (2×). The “clinical score right hind limb” value [5] was 0 (5×) and 1 (3×), the “clinical score, score (all limbs)” value [5] was 0 (3×) and 2 (2×) and 1 (3×) and the “clinical score left forelimb” value [6] was 0. The “clinical score right forelimb” value [6] was 0, the “clinical score left hind limb” value [7] was 0 (3×) and 2 (3×) and 1 (2×) and the “clinical score right hind limb” value [7] was 0 (3×) and 2 (2×) and 1 (3×). The “clinical score, score (all limbs)” value [7] was 0 (3×) and 4 and 3 (3×) and 2, the “clinical score left forelimb” value [8] was 0 and the “clinical score right forelimb” value [8] was 0. For the same compound, the “clinical score left hind limb” value [9] was 0 and 2 (3×) and 4 and 3 (2×) and 1, the “clinical score right hind limb” value [9] was 0 and 3 (4×) and 2 (2×) and 1 and the “clinical score, score (all limbs)” value [9] was 0 and 5 (3×) and 7 and 6 and 2 and 4. The “clinical score left forelimb” value [10] was 0, the “clinical score right forelimb” value [10] was 0 and the “clinical score left hind limb” value [11] was 0 and 3 (5×) and 4 and 1. For the same compound, the “clinical score right hind limb” value [11] was 0 and 3 (5×) and 4 and 2, the “clinical score, score (all limbs)” value [11] was 0 and 6 (5×) and 8 and 3 and the “clinical score left forelimb” value [12] was 0. The “clinical score right forelimb” value [12] was 0, the “clinical score left hind limb” value [13] was 0 and 3 (5×) and 4 and 1 and the “clinical score right hind limb” value [13] was 0 and 3 (5×) and 4 and 1. For the same compound, the “clinical score, score (all limbs)” value [13] was 0 and 6 (5×) and 8 and 2, the “clinical score left forelimb” value [14] was 0 and the “clinical score right forelimb” value [14] was 0. The “clinical score left forelimb” value [15] was 0, the “clinical score right forelimb” value [15] was 0 and the “clinical score left hind limb” value [16] was 0 (6×) and 1 (2×). The “clinical score, score (all limbs)” value [16] was 0 (6×) and 1 and 3, the “clinical score left forelimb” value [17] was 0 and the “clinical score right forelimb” value [17] was 0. The “clinical score left hind limb” value [18] was 0 (4×) and 1 (4×), the “clinical score right hind limb” value [18] was 0 (5×) and 2 and 1 (2×) and the “clinical score, score (all limbs)” value [18] was 0 (4×) and 1 and 3 and 2 (2×). For the same compound, the “clinical score left forelimb” value [19] was 0, the “clinical score right forelimb” value [19] was 0 and the “clinical score left hind limb” value [20] was 2. The “clinical score right hind limb” value [20] was 2, the “clinical score, score (all limbs)” value [20] was 4 and the “clinical score left forelimb” value [21] was 0. The “clinical score right forelimb” value [21] was 0, the “clinical score left hind limb” value [22] was 2 and the “clinical score right hind limb” value [22] was 3 and 2. The “clinical score, score (all limbs)” value [22] was 5 and 4, the “clinical score left forelimb” value [23] was 0 and the “clinical score right forelimb” value [23] was 0. For the same compound, the “clinical score left hind limb” value [24] was 2 and 3, the “clinical score right hind limb” value [24] was 3 and the “clinical score, score (all limbs)” value [24] was 5. The “clinical score left forelimb” value (group 7 CIA + Compound A 10 mg/kg, 2nd section of table, 1st day (between Day 12 and Day 18)) was 0, the “clinical score left hind limb” value [25] was 0 (7×) and 1 and the “clinical score right hind limb” value [25] was 0 (6×) and 1 (2×). For the same compound, the “clinical score, score (all limbs)” value [25] was 0 (6×) and 1 and 3, the “clinical score left forelimb” value [26] was 0 and the “clinical score right forelimb” value [26] was 0. For the same compound, the “clinical score left hind limb” value [27] was 0 (6×) and 1 (2×), the “clinical score right hind limb” value [27] was 0 (6×) and 2 and 1 and the “clinical score, score (all limbs)” value [27] was 0 (5×) and 1 and 2 (2×). For the same compound, the “clinical score left forelimb” value [28] was 0, the “clinical score right forelimb” value [28] was 0 and the “clinical score left hind limb” value [29] was 1 (2×) and 0 (4×) and 2 (2×). For the same compound, the “clinical score right hind limb” value [29] was 1 (2×) and 0 (5×) and 2 and the “clinical score, score (all limbs)” value [29] was 2 and 0 (4×) and 1 and 4 and 3.

From patent publication US20260217701A1, “SELECTIVE BET INHIBITORS AND USES THEREOF” (Tay Therapeutics Limited, priority 2022, published 2026)
